Data reported in patent US9932300B2, “N,N′-diarylurea compounds and N,N′-diarylthiourea compounds as inhibitors of translation initiation” (President and Fellows of Harvard College, priority 2009, dated 2018).

Tests used:
[1] = test system: eIF2-GTP-Met-tRNAi ternary complex; experiment: Ternary complex assay (dual luciferase, firefly/renilla ratio) in stable KLN-tTA/pBISA-DL(ATF-4) cells; HTS and hit confirmation; assay type: cell-based, mouse; settings: designation in figure legend
[2] = test system: PC-3 human prostate cancer cells; experiment: Cell proliferation, SRB assay, PC-3; assay type: cell-based; settings: read-out: IC50 (concentration that inhibits cell proliferation by 50%)
Description: Reduced availability of the ternary complex causes inhibition of translation initiation and thereby of cell proliferation. […] The effects of N,N′-diarlyureas on the proliferation KLN mouse squamous cell carcinoma, CRL-2351 human breast, CRL-2813 human melanoma, A549 human lung and PC-3 human prostate cancer cell lines were tested.
To determine if N,N′-diarylureas inhibit cell proliferation by reducing the availability of the ternary complex, the effect of N,N′-diarylureas on proliferation of previously described transgenic PC-3 human prostate cancer cell lines expressing either the non-phosphorylatable eIF2α-S51A mutant or the eIF2α-WT was studied. […] Reducing the expression of HRI, the eIF2α kinase that mediates N,N′-diarlyurea induced phosphorylation of eIF2α similarly abrogates the effect of these agents on cell proliferation (FIGS. 15C and 15D).
Cell Growth Assay: Cell growth was measured by the SRB assay.

## O=C(Nc1ccc(Cl)c(Cl)c1)Nc1cc([N+](=O)[O-])ccc1Cl [Compound 1527]
[1]
  Active or inactive N,N′-diarylurea (ternary complex assay): inactive
[2]
  IC50: 8.3 µM
